This assay relates to P388 leukemia ip, CD2F1 mice, survival T/C. Put plainly: NCI In Vivo Anticancer Drug Screen. Data for tumor model P388 Leukemia (intraperitoneal) in CD2F1 (CDF1) mice. To be noted: endpoint: median survival time, higher = longer survival. The gist of the method:
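Mice carrying the transplanted tumor received test compound or vehicle. Survival was recorded in each group, and the value is the treated-group measurement divided by that of the vehicle-treated control group.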

Where [1] appears, read: dose: 60.0 mg/kg/injection, schedule: Q01DX005 (ip), vehicle: Klucel (hydroxypropylcellulose) (HPC).
The mark [2] stands for this setting: dose: 120.0 mg/kg/injection, schedule: Q01DX005 (ip), vehicle: Klucel (hydroxypropylcellulose) (HPC).
The mark [3] stands for this setting: dose: 240.0 mg/kg/injection, schedule: Q01DX005 (ip), vehicle: Klucel (hydroxypropylcellulose) (HPC).
[4] abbreviates: dose: 50.0 mg/kg/injection, schedule: Q01DX009 (ip), vehicle: Klucel (hydroxypropylcellulose) (HPC).
Where [5] appears, read: dose: 100.0 mg/kg/injection, schedule: Q01DX009 (ip), vehicle: Klucel (hydroxypropylcellulose) (HPC).
Where [6] appears, read: dose: 200.0 mg/kg/injection, schedule: Q01DX009 (ip), vehicle: Klucel (hydroxypropylcellulose) (HPC).
Where [7] appears, read: dose: 50.0 mg/kg/injection, schedule: Q01DX009 (ip), vehicle: saline with Tween-80.
Where [8] appears, read: dose: 100.0 mg/kg/injection, schedule: Q01DX009 (ip), vehicle: saline with Tween-80.
The mark [9] stands for this setting: dose: 200.0 mg/kg/injection, schedule: Q01DX009 (ip), vehicle: saline with Tween-80.
Setting [10] is: dose: 8.0 mg/kg/injection, schedule: Q01DX009 (ip), vehicle: saline with Tween-80.
Where [11] appears, read: dose: 400.0 mg/kg/injection, schedule: Q01DX009 (ip), vehicle: saline with Tween-80.
The mark [12] stands for this setting: dose: 50.0 mg/kg/injection, schedule: Q01DX005 (ip), vehicle: Klucel (hydroxypropylcellulose) (HPC).
Where [13] appears, read: dose: 100.0 mg/kg/injection, schedule: Q01DX005 (ip), vehicle: Klucel (hydroxypropylcellulose) (HPC).

Where “and” joins values, the source holds several entries; their conditions need not be identical. Identical values can stand only once. Inconclusive results and toxic doses are left out.

Take `CCCOC1(C)Oc2cc3c(cc2C(c2cc(OC)c(OC)c(OC)c2)C1C)OCO3` (stereo not drawn): the T/C runs as follows: under setting [1], 97 % of control; under setting [2], 96 % of control; under setting [3], 99 % of control.
For `CSC(=NCCCCCCCCN=C(NC#N)SC)NC#N`, the T/C was 94 % of control under setting [4], 102 % of control under setting [5] and 95 % of control under setting [6].
Consider `O=C1NC(=O)C(C2CCOC2=O)N1` (stereo not drawn), for which the T/C runs as follows: under setting [7], 106 % of control; under setting [8], 102 % of control; under setting [9], 106 % of control.
`CCC[CH2][Sn]1([CH2]CCC)[O]CCN2CCN(CC[O]1)CC2`: the T/C is 102 % of control (dose: 3.75 mg/kg/injection, schedule: Q01DX005 (ip), vehicle: saline with Tween-80); 100 % of control (dose: 7.5 mg/kg/injection, schedule: Q01DX005 (ip), vehicle: saline with Tween-80); 100 % of control (dose: 15.0 mg/kg/injection, schedule: Q01DX005 (ip), vehicle: saline with Tween-80).
On to `Cn1c(/C=[N+](/C)[O-])cnc1[N+](=O)[O-]`, for which the T/C runs as follows: (dose: 50.0 mg/kg/injection, schedule: Q01DX009 (ip), vehicle: suspension in saline) 102 % of control; (dose: 100.0 mg/kg/injection, schedule: Q01DX009 (ip), vehicle: suspension in saline) 103 % of control; (dose: 200.0 mg/kg/injection, schedule: Q01DX009 (ip), vehicle: suspension in saline) 108 % of control.
Take `CN(C)CCN1C(=O)c2cccc3cc(N)cc(c23)C1=O`: the T/C is 111 % of control (dose: 2.0 mg/kg/injection, schedule: Q01DX009 (ip), vehicle: saline with Tween-80) and 176 % of control under setting [10].
With `CC(C)NC(=O)c1ccc(CN(O)Cc2ccc(C(=O)NC(C)C)cc2)cc1`, the T/C is 99 % of control (dose: 25.0 mg/kg/injection, schedule: Q01DX009 (ip), vehicle: other); 99 % of control (dose: 50.0 mg/kg/injection, schedule: Q01DX009 (ip), vehicle: other); 88 % of control (dose: 100.0 mg/kg/injection, schedule: Q01DX009 (ip), vehicle: other); 97 % of control (dose: 400.0 mg/kg/injection, schedule: Q01DX009 (ip), vehicle: other).
Regarding `C=CC(C)n1ccnc1` (stereo not drawn), the T/C was 101 % of control (dose: 50.0 mg/kg/injection, schedule: Q01DX009 (ip), vehicle: saline); 97 % of control (dose: 100.0 mg/kg/injection, schedule: Q01DX009 (ip), vehicle: saline); 102 % of control (dose: 200.0 mg/kg/injection, schedule: Q01DX009 (ip), vehicle: saline).
Regarding `Cc1cc(C)nc(NS(=O)(=O)c2ccc(NC(=O)Nc3cc(F)ccc3F)cc2)n1`, the T/C is, setting by setting: under setting [4], 96 % of control; under setting [5], 95 % of control; under setting [6], 91 % of control.
As to `Cc1c(C#N)c2n(c1C)CC(=O)N2`, the T/C is, setting by setting: (dose: 60.0 mg/kg/injection, schedule: Q01DX005 (ip), vehicle: saline with Tween-80) 87 % of control; (dose: 120.0 mg/kg/injection, schedule: Q01DX005 (ip), vehicle: saline with Tween-80) 95 % of control.
For the molecule `c1cc2n3c1CCc1ccc(n1CC3)CC2`, the T/C runs as follows: under setting [10], 100 % of control; (dose: 16.0 mg/kg/injection, schedule: Q01DX009 (ip), vehicle: saline with Tween-80) 100 % of control; (dose: 32.0 mg/kg/injection, schedule: Q01DX009 (ip), vehicle: saline with Tween-80) 100 % of control.
Take `COc1cc(C2(c3ccc(O)c(OC)c3)CCCCC2)ccc1O`: the T/C under setting [4] is 100 % of control, the T/C under setting [5] is 100 % of control and the T/C under setting [6] is 100 % of control.
On to `Nc1nc(Cl)c2ncn(C3OC(CO)C(O)C3O)c2n1` (stereo not drawn), for which the T/C under setting [9] is 98 % of control and the T/C under setting [11] is 100 % of control.
`CCN(CC)C(=O)C(F)C(F)(F)C(F)(F)C(F)C(=O)N(CC)CC` (stereo not drawn): the T/C reads like this: under setting [4], 108 % of control; under setting [5], 99 % of control; under setting [6], 98 % of control.
Take `Cc1nnsc1-c1nc2ccccc2[nH]1`: the T/C was 95 % of control under setting [12]; 102 % of control under setting [13]; 104 % of control (dose: 200.0 mg/kg/injection, schedule: Q01DX005 (ip), vehicle: Klucel (hydroxypropylcellulose) (HPC)).
For the molecule `CCOC(=O)CC1(O)CSC(=C(C(=O)OCC)C(=O)OCC)N1c1ccccc1` (stereo not drawn), the T/C was 98 % of control (dose: 50.0 mg/kg/injection, schedule: Q01DX005 (ip), vehicle: saline with Tween-80); 91 % of control (dose: 100.0 mg/kg/injection, schedule: Q01DX005 (ip), vehicle: saline with Tween-80); 102 % of control (dose: 200.0 mg/kg/injection, schedule: Q01DX005 (ip), vehicle: saline with Tween-80).
As for `O=[n+]1cc2ccccn2cc1-c1ccccc1`, the T/C under setting [8] is 90 % of control, the T/C under setting [9] is 95 % of control and the T/C under setting [11] was 118 % of control.
With `CC1(C)CCC2=C(O1)c1ccccc1C(=O)C2=O`, the T/C is 96 % of control (dose: 12.5 mg/kg/injection, schedule: Q01DX009 (ip), vehicle: Klucel (hydroxypropylcellulose) (HPC)); 105 % of control and 94 % of control (dose: 25.0 mg/kg/injection, schedule: Q01DX009 (ip), vehicle: Klucel (hydroxypropylcellulose) (HPC)); 114 % of control and 96 % of control under setting [4]; 115 % of control under setting [5].
Regarding `C1CCC([N-]C2CCCCC2)CC1.C1CCC([N-]C2CCCCC2)CC1.[Cl][Pt+2][Cl]`, the T/C was 103 % of control (dose: 100.0 mg/kg/injection, schedule: Q01DX001 (sc), vehicle: other) and 107 % of control (dose: 200.0 mg/kg/injection, schedule: Q01DX001 (sc), vehicle: other).
Consider `CNCCOC(=O)/C=C1/CCC2C(C(O)CC3C(C)(C(=O)OC)CCCC23C)C1C` (stereo not drawn), for which the T/C by setting is: (dose: 1.5 mg/kg/injection, schedule: Q01DX009 (ip), vehicle: saline) 110 % of control; (dose: 3.0 mg/kg/injection, schedule: Q01DX009 (ip), vehicle: saline) 102 % of control; (dose: 6.0 mg/kg/injection, schedule: Q01DX009 (ip), vehicle: saline) 106 % of control.
On to `C1CSCCSCCSCCSCCSCCS1`, for which the T/C was 96 % of control under setting [4], 102 % of control under setting [5] and 96 % of control under setting [6].
As to `CC1=CCC(C(C)C2CCC3(C)C4=C(C=C5C=CC(=O)OC(C)(C)C5CC4)CCC23C)OC1=O` (stereo not drawn), the T/C reads like this: (dose: 12.5 mg/kg/injection, schedule: Q01DX005 (ip), vehicle: other) 108 % of control; (dose: 25.0 mg/kg/injection, schedule: Q01DX005 (ip), vehicle: other) 100 % of control; (dose: 50.0 mg/kg/injection, schedule: Q01DX005 (ip), vehicle: other) 93 % of control; (dose: 100.0 mg/kg/injection, schedule: Q01DX005 (ip), vehicle: other) 91 % of control.
Turning to `CCOC(=O)C(=CNNCCC#N)C(=O)OCC`, the T/C is 90 % of control under setting [7], 90 % of control under setting [8] and 95 % of control under setting [9].
In the case of `O=C(C[n+]1cc2ccccc2c2ccccc21)c1ccc(-c2ccccc2)cc1`, the T/C runs as follows: (dose: 6.25 mg/kg/injection, schedule: Q01DX005 (ip), vehicle: Klucel (hydroxypropylcellulose) (HPC)) 104 % of control; (dose: 12.5 mg/kg/injection, schedule: Q01DX005 (ip), vehicle: Klucel (hydroxypropylcellulose) (HPC)) 104 % of control; (dose: 25.0 mg/kg/injection, schedule: Q01DX005 (ip), vehicle: Klucel (hydroxypropylcellulose) (HPC)) 110 % of control; under setting [12], 105 % of control; under setting [13], 109 % of control.
Regarding `O=C(SC(O)c1ccc(Cl)cc1)c1ccccc1` (stereo not drawn), the T/C reads like this: under setting [4], 99 % of control; under setting [5], 106 % of control; under setting [6], 105 % of control.
Take `Cc1nc2nc[nH]n2c1N=Nc1ccccc1`: the T/C runs as follows: under setting [1], 98 % of control; under setting [2], 95 % of control; under setting [3], 107 % of control.
Take `CC[Se](CC)CC.CC[Se](CC)CC.C[CH2][Ge]([CH2]C)[O][Ge]([CH2]C)[CH2]C`: the T/C was 99 % of control and 95 % of control (dose: 3.12 mg/kg/injection, schedule: Q01DX009 (ip), vehicle: saline); 96 % of control (2×) and 97 % of control (dose: 6.25 mg/kg/injection, schedule: Q01DX009 (ip), vehicle: saline); 101 % of control and 107 % of control and 96 % of control (dose: 12.5 mg/kg/injection, schedule: Q01DX009 (ip), vehicle: saline); 117 % of control and 118 % of control (dose: 25.0 mg/kg/injection, schedule: Q01DX009 (ip), vehicle: saline).

These data come from PubChem BioAssay AID330 (DTP/NCI, 2004).
